Measured values taken from PubChem BioAssay (NCI).
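The concentration for 50% growth inhibition is given as GI50. Definition used: TGI = concentration required for complete inhibition of growth.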

Columns and labels:
Experiment in all cases: NCI-60 cell line screen, 384-well format
786-0 renal = test system: 786-0 renal
A498 renal = test system: A498 renal
A549 NSCLC = test system: A549 NSCLC
ACHN renal = test system: ACHN renal
BT-549 breast = test system: BT-549 breast
CAKI-1 renal = test system: CAKI-1 renal
CCRF-CEM leukemia = test system: CCRF-CEM leukemia
COLO 205 colon = test system: COLO 205 colon
DU-145 prostate = test system: DU-145 prostate
EKVX NSCLC = test system: EKVX NSCLC
HCC-2998 colon = test system: HCC-2998 colon
HCT-15 colon = test system: HCT-15 colon
HL-60(TB) leukemia = test system: HL-60(TB) leukemia
HOP-62 NSCLC = test system: HOP-62 NSCLC
HOP-92 NSCLC = test system: HOP-92 NSCLC
HS 578T breast = test system: HS 578T breast
HT29 colon = test system: HT29 colon
IGROV1 ovarian = test system: IGROV1 ovarian
K-562 leukemia = test system: K-562 leukemia
KM12 colon = test system: KM12 colon
LOX IMVI melanoma = test system: LOX IMVI melanoma
M14 melanoma = test system: M14 melanoma
MALME-3M melanoma = test system: MALME-3M melanoma
MCF7 breast = test system: MCF7 breast
MDA-MB-231 breast = test system: MDA-MB-231 breast
MDA-MB-435 melanoma = test system: MDA-MB-435 melanoma
MDA-MB-468 breast = test system: MDA-MB-468 breast
MOLT-4 leukemia = test system: MOLT-4 leukemia
NCI-H226 lung = test system: NCI-H226 lung
NCI-H23 lung = test system: NCI-H23 lung
NCI-H322M lung = test system: NCI-H322M lung
NCI-H460 NSCLC = test system: NCI-H460 NSCLC
NCI-H522 lung = test system: NCI-H522 lung
NCI/ADR-RES ovarian = test system: NCI/ADR-RES ovarian
OVCAR-3 ovarian = test system: OVCAR-3 ovarian
OVCAR-4 ovarian = test system: OVCAR-4 ovarian
OVCAR-5 ovarian = test system: OVCAR-5 ovarian
OVCAR-8 ovarian = test system: OVCAR-8 ovarian
PC-3 prostate = test system: PC-3 prostate
RPMI-8226 leukemia = test system: RPMI-8226 leukemia
RXF 393 renal = test system: RXF 393 renal
SF-268 CNS = test system: SF-268 CNS
SF-295 CNS = test system: SF-295 CNS
SF-539 CNS = test system: SF-539 CNS
SK-MEL-28 melanoma = test system: SK-MEL-28 melanoma
SK-MEL-5 melanoma = test system: SK-MEL-5 melanoma
SK-OV-3 ovarian = test system: SK-OV-3 ovarian
SN12C renal = test system: SN12C renal
SNB-19 CNS = test system: SNB-19 CNS
SNB-75 CNS = test system: SNB-75 CNS
SR leukemia = test system: SR leukemia
SW-620 colon = test system: SW-620 colon
T-47D breast = test system: T-47D breast
TK-10 renal = test system: TK-10 renal
UACC-257 melanoma = test system: UACC-257 melanoma
UACC-62 melanoma = test system: UACC-62 melanoma
UO-31 renal = test system: UO-31 renal

In the case of `CN1CCN(C(=O)COc2ccc(C34CC5CC(CC(C5)C3)C4)cc2)CC1`, the GI50 ([…]-0 renal) was 1740 nM, the TGI (786-0 renal) was 3.24 µM and the GI50 (A498 renal) was 1620 nM. The TGI (A498 renal) was 3.12 µM, the GI50 (A549 NSCLC) was 5.49 µM and the TGI (A549 NSCLC) was 17.8 µM. It also gave a GI50 (ACHN renal) of 7.11 µM, a TGI (ACHN renal) of 19.6 µM and a GI50 (BT-549 breast) of 3.48 µM. The TGI (BT-549 breast) was 16 µM, the GI50 (CAKI-1 renal) was 2220 nM and the TGI (CAKI-1 renal) was 4.56 µM. The GI50 (CCRF-CEM leukemia) was 2030 nM, the TGI (CCRF-CEM leukemia) was 4.43 µM and the GI50 (COLO 205 colon) was 1790 nM. It also gave a TGI (COLO 205 colon) of 3.21 µM, a GI50 (DU-145 prostate) of 12.1 µM and a TGI (DU-145 prostate) of 24.6 µM. The GI50 (EKVX NSCLC) was 11.4 µM, the TGI (EKVX NSCLC) was 23.6 µM and the GI50 (HCC-2998 colon) was 1560 nM. It also gave a TGI (HCC-2998 colon) of 3.11 µM, a GI50 (HCT-15 colon) of 1840 nM and a TGI (HCT-15 colon) of 3.37 µM. The GI50 (HL-60(TB) leukemia) was 1800 nM, the TGI (HL-60(TB) leukemia) was 3.21 µM and the GI50 (HOP-62 NSCLC) was 4.84 µM. The TGI (HOP-62 NSCLC) was 16.5 µM, the GI50 (HOP-92 NSCLC) was 3.58 µM and the TGI (HOP-92 NSCLC) was 15.7 µM. It also gave a GI50 (HS 578T breast) of 3.17 µM, a TGI (HS 578T breast) of 10.6 µM and a GI50 (HT29 colon) of 1720 nM. For the same compound, the TGI (HT29 colon) was 3.31 µM, the GI50 (IGROV1 ovarian) was 12.7 µM and the TGI (IGROV1 ovarian) was 25.3 µM. For the same compound, the GI50 (K-562 leukemia) was 1640 nM, the TGI (K-562 leukemia) was 3.17 µM and the GI50 (KM12 colon) was 2180 nM. It also gave a TGI (KM12 colon) of 4.77 µM, a GI50 (LOX IMVI melanoma) of 2310 nM and a TGI (LOX IMVI melanoma) of 5.31 µM. It also gave a GI50 (M14 melanoma) of 1870 nM, a TGI (M14 melanoma) of 3.41 µM and a GI50 (MALME-3M melanoma) of 1700 nM. It also gave a TGI (MALME-3M melanoma) of 3.19 µM, a GI50 (MCF7 breast) of 2080 nM and a TGI (MCF7 breast) of 6.06 µM. For the same compound, the GI50 (MDA-MB-231 breast) was 6.09 µM, the TGI (MDA-MB-231 breast) was 18.5 µM and the GI50 (MDA-MB-435 melanoma) was 3.94 µM. For the same compound, the TGI (MDA-MB-435 melanoma) was 13.4 µM, the GI50 (MDA-MB-468 breast) was 1930 nM and the TGI (MDA-MB-468 breast) was 3.7 µM. It also gave a GI50 (MOLT-4 leukemia) of 1790 nM, a TGI (MOLT-4 leukemia) of 4.27 µM and a GI50 (NCI-H226 lung) of 6.3 µM. For the same compound, the TGI (NCI-H226 lung) was 19.3 µM, the GI50 (NCI-H23 lung) was 4.5 µM and the TGI (NCI-H23 lung) was 15.9 µM. The GI50 (NCI-H322M lung) was 3.81 µM, the TGI (NCI-H322M lung) was 13.5 µM and the GI50 (NCI-H460 NSCLC) was 2480 nM. It also gave a TGI (NCI-H460 NSCLC) of 5.79 µM, a GI50 (NCI-H522 lung) of 8.25 µM and a TGI (NCI-H522 lung) of 20.5 µM. It also gave a GI50 (NCI/ADR-RES ovarian) of 7.51 µM, a TGI (NCI/ADR-RES ovarian) of 20.1 µM and a GI50 (OVCAR-3 ovarian) of 7.07 µM. The TGI (OVCAR-3 ovarian) was 19.7 µM, the GI50 (OVCAR-4 ovarian) was 8.56 µM and the TGI (OVCAR-4 ovarian) was 20.7 µM. It also gave a GI50 (OVCAR-5 ovarian) of 5.11 µM, a TGI (OVCAR-5 ovarian) of 16.6 µM and a GI50 (OVCAR-8 ovarian) of 10.3 µM. For the same compound, the TGI (OVCAR-8 ovarian) was 22.1 µM, the GI50 (PC-3 prostate) was 8.05 µM and the TGI (PC-3 prostate) was 20.6 µM. It also gave a GI50 (RPMI-8226 leukemia) of 1700 nM, a TGI (RPMI-8226 leukemia) of 3.22 µM and a GI50 (RXF 393 renal) of 1850 nM. It also gave a TGI (RXF 393 renal) of 4.12 µM, a GI50 (SF-268 CNS) of 4.74 µM and a TGI (SF-268 CNS) of 16.2 µM. For the same compound, the GI50 (SF-295 CNS) was 2850 nM, the TGI (SF-295 CNS) was 8.18 µM and the GI50 (SF-539 CNS) was 3.98 µM. For the same compound, the TGI (SF-539 CNS) was 13.8 µM, the GI50 (SK-MEL-28 melanoma) was 1740 nM and the TGI (SK-MEL-28 melanoma) was 3.19 µM. It also gave a GI50 (SK-MEL-5 melanoma) of 1850 nM, a TGI (SK-MEL-5 melanoma) of 3.37 µM and a GI50 (SK-OV-3 ovarian) of 7.12 µM. For the same compound, the TGI (SK-OV-3 ovarian) was 19.8 µM, the GI50 (SN12C renal) was 11.8 µM and the TGI (SN12C renal) was 24.2 µM. It also gave a GI50 (SNB-19 CNS) of 10.5 µM, a TGI (SNB-19 CNS) of 22.3 µM and a GI50 (SNB-75 CNS) of 11.9 µM. It also gave a TGI (SNB-75 CNS) of 24.3 µM, a GI50 (SR leukemia) of 1680 nM and a TGI (SR leukemia) of 3.08 µM. It also gave a GI50 (SW-620 colon) of 1780 nM, a TGI (SW-620 colon) of 3.31 µM and a GI50 (T-47D breast) of 2660 nM. The TGI (T-47D breast) was 10.6 µM, the GI50 (TK-10 renal) was 9.41 µM and the TGI (TK-10 renal) was 21.3 µM. For the same compound, the GI50 (UACC-257 melanoma) was 2190 nM, the TGI (UACC-257 melanoma) was 4.32 µM and the GI50 (UACC-62 melanoma) was 1810 nM. For the same compound, the TGI (UACC-62 melanoma) was 3.32 µM, the GI50 (UO-31 renal) was 11.3 µM and the TGI (UO-31 renal) was 23.9 µM.
